Experimental data from US8394801B2, “Quinoxaline derivatives and their use for treating benign and malignant tumour disorders” (Aeterna Zentaris GmbH, priority 2009, dated 2013).

What was measured:
MDA MB468 = assay: Proliferation assay (Alamar Blue / XTT), MDA MB468; assay type: cell-based; details: Homo sapiens, MDA-MB-468; cell line MDA-MB468 (breast)
NCI-H460 = assay: Proliferation assay (Alamar Blue / XTT), NCI-H460; assay type: cell-based; details: Homo sapiens; cell line NCI-H460 (lung)
RKOP27 = assay: Proliferation assay (Alamar Blue / XTT), RKOP27; assay type: cell-based; details: Homo sapiens; cell line RKOp27 (colon)
SKOV-3 = assay: Proliferation assay (Alamar Blue / XTT), SKOV-3; assay type: cell-based; details: Homo sapiens, SK-OV-3; cell line SKOV-3 (ovaries)
U87MG = assay: Proliferation assay (Alamar Blue / XTT), U87MG; assay type: cell-based; details: Homo sapiens, U-87 MG; cell line U87MG (glioma)
A549 = assay: Proliferation assay (Alamar Blue / XTT), A549; assay type: cell-based; details: Homo sapiens; cell line A549 (lung)
PC-3 = assay: Proliferation assay (Alamar Blue / XTT), PC-3; assay type: cell-based; details: Homo sapiens, cell line PC3 (prostate)
HCT116 = assay: Proliferation assay (Alamar Blue / XTT), HCT116; assay type: cell-based; details: Homo sapiens; cell line HCT-116 (colon)
TMM = assay: Proliferation assay (Alamar Blue / XTT), TMM; assay type: cell-based; details: Homo sapiens; cell line TMM (leukaemia)
L363 = assay: Proliferation assay (Alamar Blue / XTT), L363; assay type: cell-based; details: Homo sapiens, L-363; cell line L363 (leukaemia)
NCI H69 AR = assay: XTT proliferation test, multi-drug-resistant NCI H69 AR; assay type: cell-based; details: Homo sapiens, NCI-H69AR, multi-drug-resistant cell line NCIH69 AR (lung)
Text: (§1) For further characterization, the substances according to the invention were examined in resistant tumour cell lines compared to non-resistant wild-type tumour cell lines.
(§2) The cell lines examined are the cell line A2780 (ovary), the cis-platin-resistant cell line A2780 (ovary), the cell line L1210 (leukaemia), the vincristine-resistant cell line L1210 (leukaemia), the cell line MESSA (uterus), the doxorubicin-resistant cell line MESSA Dx5 (uterus), the cell line NCIH69 (lung) and the multi-drug-resistant cell line NCIH69 AR (lung).

MOLT-16 = assay: Proliferation assay (Alamar Blue / XTT), MOLT-16; assay type: cell-based; details: Homo sapiens; cell line MOLT-16 (leukaemia)
MESSA = assay: XTT proliferation test, MESSA; assay type: cell-based; details: Homo sapiens, MES-SA, cell line MESSA (uterus), non-resistant
Text: as §1, §2

L1210 = assay: XTT proliferation test, L1210; assay type: cell-based; details: Mus musculus, cell line L1210 (leukaemia), non-resistant
Text: as §1, §2

A2780 = assay: XTT proliferation test, A2780; assay type: cell-based; details: Homo sapiens, cell line A2780 (ovary), non-resistant
Text: as §1, §2

MESSA DX5 = assay: XTT proliferation test, doxorubicin-resistant MESSA Dx5; assay type: cell-based; details: Homo sapiens, MES-SA/Dx5, doxorubicin-resistant cell line MESSA Dx5 (uterus)
Text: as §1, §2

NALM-6 = assay: Proliferation assay (Alamar Blue / XTT), NALM-6; assay type: cell-based; details: Homo sapiens; cell line NALM-6 (leukaemia)
NCI H69 = assay: XTT proliferation test, NCI H69; assay type: cell-based; details: Homo sapiens, cell line NCIH69 (lung), non-resistant
Text: as §1, §2

MOLT-3 = assay: Proliferation assay (Alamar Blue / XTT), MOLT-3; assay type: cell-based; details: Homo sapiens; cell line MOLT-3 (leukaemia)
LNCaP = assay: Proliferation assay (Alamar Blue / XTT), LNCaP; assay type: cell-based; details: Homo sapiens; cell line LnCap (prostate)
A2780 cis-Pt = assay: XTT proliferation test, cis-platin-resistant A2780; assay type: cell-based; details: Homo sapiens, cis-platin-resistant cell line A2780 (ovary)
Text: as §1, §2

RS4, 11 = assay: Proliferation assay (Alamar Blue / XTT), RS4, 11; assay type: cell-based; details: Homo sapiens; cell line RS4,11 (leukaemia)
MCF-7 = assay: Proliferation assay (Alamar Blue / XTT), MCF-7; assay type: cell-based; details: Homo sapiens, MCF7; cell line MCF-7 (breast)
HSB-2 = assay: Proliferation assay (Alamar Blue / XTT), HSB-2; assay type: cell-based; details: Homo sapiens, HSB2; cell line HSB-2 (leukaemia)
MDA-MB435 = assay: Proliferation assay (Alamar Blue / XTT), MDA-MB435; assay type: cell-based; details: Homo sapiens, MDA-MB-435; cell line MDA-MBA435 (breast)
L1210 VCR = assay: XTT proliferation test, vincristine-resistant L1210; assay type: cell-based; details: Mus musculus, vincristine-resistant cell line L1210 (leukaemia)
Text: as §1, §2

KB-HeLa = assay: Proliferation assay (Alamar Blue / XTT), KB-HeLa; assay type: cell-based; details: Homo sapiens; cell line KB/HeLa (cervix)

## Cc1cc(-c2ccc3ncc(NC(=O)NC(C)(C)C)nc3c2)cc(C)c1O [Compound 9, 1-tert-Butyl-3-[7-(4-hydroxy-3,5-dimethylphenyl)quinoxalin-2-yl]urea]
MDA MB468
  EC50: 263 nM
NCI-H460
  EC50: 238 nM
RKOP27
  EC50: 176 nM
SKOV-3
  EC50: 248 nM
U87MG
  EC50: 181 nM
A549
  EC50: 289 nM
PC-3
  EC50: 112 nM
HCT116
  EC50: 229 nM

## Cc1cc(-c2ccc3ncc(NC(=O)NC(C)C)nc3c2)cc(C)c1O [Compound 17, 1-[7-(4-Hydroxy-3,5-dimethylphenyl)quinoxalin-2-yl]-3-isopropylurea]
TMM
  EC50: 32 nM
MDA MB468
  EC50: 39 nM
L363
  EC50: 78 nM
NCI-H460
  EC50: 47 nM
NCI H69 AR
  EC50: 86 nM
MOLT-16
  EC50: 56 nM
MESSA
  EC50: 152 nM
L1210
  EC50: 2 nM
A2780
  EC50: 0.3 nM
MESSA DX5
  EC50: 139 nM
NALM-6
  EC50: 54 nM
RKOP27
  EC50: 26 nM
SKOV-3
  EC50: 40 nM
U87MG
  EC50: 10 nM
NCI H69
  EC50: 27 nM
MOLT-3
  EC50: 36 nM
LNCaP
  EC50: 40 nM
A2780 cis-Pt
  EC50: 0.5 nM
A549
  EC50: 29 nM
RS4, 11
  EC50: 37 nM
MCF-7
  EC50: 32 nM
HSB-2
  EC50: 37 nM
PC-3
  EC50: 28 nM
other
  melting point: 280 to 283 °C
MDA-MB435
  EC50: 18 nM
L1210 VCR
  EC50: 4 nM
HCT116
  EC50: 24 nM
KB-HeLa
  EC50: 37 nM

## CCNC(=S)Nc1cnc2ccc(-c3cc(C)c(O)c(C)c3)cc2n1 [Compound 22, 1-Ethyl-3-[7-(4-hydroxy-3,5-dimethylphenyl)quinoxalin-2-yl]thiourea]
MDA MB468
  EC50: 53 nM
NCI-H460
  EC50: 27 nM
NCI H69 AR
  EC50: 8 nM
MESSA
  EC50: 141 nM
L1210
  EC50: 15 nM
A2780
  EC50: 18 nM
MESSA DX5
  EC50: 38 nM
RKOP27
  EC50: 28 nM
SKOV-3
  EC50: 30 nM
U87MG
  EC50: 2 nM
NCI H69
  EC50: 10 nM
A2780 cis-Pt
  EC50: 14 nM
A549
  EC50: 8 nM
PC-3
  EC50: 11 nM
other
  melting point: 243 to 244 °C
L1210 VCR
  EC50: 19 nM
HCT116
  EC50: 7 nM

## Cc1cc(-c2ccc3ncc(NC(=S)NC4CC4)nc3c2)cc(C)c1O [Compound 23, 1-Cyclopropyl-3-[7-(4-hydroxy-3,5-dimethylphenyl)quinoxalin-2-yl]-thiourea]
MDA MB468
  EC50: 148 nM
NCI-H460
  EC50: 21 nM
NCI H69 AR
  EC50: 0.8 nM
MESSA
  EC50: 48 nM
L1210
  EC50: 5 nM
A2780
  EC50: 22 nM
MESSA DX5
  EC50: 16 nM
RKOP27
  EC50: 20 nM
SKOV-3
  EC50: 16 nM
U87MG
  EC50: 2 nM
NCI H69
  EC50: 4 nM
A2780 cis-Pt
  EC50: 19 nM
A549
  EC50: 9 nM
PC-3
  EC50: 3 nM
other
  melting point: 274 to 276 °C
L1210 VCR
  EC50: 4 nM
HCT116
  EC50: 3 nM

## Cc1cc(-c2ccc3ncc(NC(=S)NC(C)C)nc3c2)cc(C)c1O [Compound 31, 1-[7-(4-Hydroxy-3,5-dimethylphenyl)quinoxalin-2-yl]-3-isopropylthiourea]
MDA MB468
  EC50: 25 nM
NCI-H460
  EC50: 60 nM
SKOV-3
  EC50: 45 nM
U87MG
  EC50: 13 nM
A549
  EC50: 23 nM
PC-3
  EC50: 15 nM
other
  melting point: 269 to 271 °C
HCT116
  EC50: 30 nM

## CCCCNC(=S)Nc1cnc2ccc(-c3cc(C)c(O)c(C)c3)cc2n1 [Compound 32, 1-Butyl-3-[7-(4-hydroxy-3,5-dimethylphenyl)quinoxalin-2-yl]thiourea]
MDA MB468
  EC50: 20 nM
NCI-H460
  EC50: 30 nM
SKOV-3
  EC50: 27 nM
U87MG
  EC50: 3 nM
A549
  EC50: 9 nM
PC-3
  EC50: 9 nM
other
  melting point: 278 to 280 °C
HCT116
  EC50: 16 nM

## Cc1cc(-c2ccc3ncc(NC(=S)NC4CCC4)nc3c2)cc(C)c1O [Compound 34, 1-Cyclobutyl-3-[7-(4-hydroxy-3,5-dimethylphenyl)quinoxalin-2-yl]-thiourea]
MDA MB468
  EC50: 30 nM
NCI-H460
  EC50: 52 nM
RKOP27
  EC50: 58 nM
SKOV-3
  EC50: 50 nM
U87MG
  EC50: 224 nM
A549
  EC50: 16 nM
PC-3
  EC50: 12 nM
other
  melting point: 285 to 286 °C
HCT116
  EC50: 36 nM

## CCCNC(=O)Nc1cnc2ccc(-c3cc(C)c(O)c(C)c3)cc2n1 [Compound 36, 1-[7-(4-Hydroxy-3,5-dimethylphenyl)quinoxalin-2-yl]-3-propylurea]
MDA MB468
  EC50: 43 nM
NCI-H460
  EC50: 64 nM
SKOV-3
  EC50: 42 nM
U87MG
  EC50: 111 nM
A549
  EC50: 34 nM
PC-3
  EC50: 9 nM
other
  melting point: 276 to 277 °C
HCT116
  EC50: 43 nM
